Reference: US7833967B2, “Synthetic antimicrobial polypeptides” (priority 2003, dated 2010)
Like-named read-outs stand apart in the source and are kept apart here. Ends that are not written are not given here.

Columns and labels:
E. coli TOP10 = experiment: Suicide expression system (SES) growth inhibition; format: cell-based; settings: Table 5; mixed-motif library, re-tested in the Bioscreen C
[1] = system: human red blood cells (hRBC); format: cell-based; settings: red cells of human
Description: The ability of the antimicrobial peptides to lyse human red blood cells (hRBC) was analyzed. The Red Blood Cell Test assay provides a simple test system that assesses the membranolytic activity of test materials. It is suitable as a screening assay for hemolytic properties. Hemoglobin release is a useful endpoint of cell membrane integrity. Released hemoglobin is detected by measuring absorbance at 540 nm. Normally, the concentration resulting in 50% hemolysis relative to a totally lysed sample (HL50) would be calculated; however due to the low hemolytic activity of the tested peptides, this was not done in this Example. An 8% RBC suspension (12 days old) was used in the present test setup.
Since the peptides were dissolved in 0.01% acetic acid, vehicle control of the 0.01% acetic acid was included. PBS with 25%, 10%, and 5% 0.01% acetic acid was included on both plates.
To verify that a dose/response effect exists, the hemolytic activity of SDS was also tested.

310 (RRRPPRVPRPFPIRPPPRVPRPVPVRP; Synthetic antimicrobial peptide) [compound 310]
Growth inhibition (%) (E. coli TOP10): 93%

311 (RRRPPRVPRPFPVRPPPRFPRPVPFRP; Synthetic antimicrobial peptide) [compound 311]
Growth inhibition (%) (E. coli TOP10): 96%

312 (RRRPPRVPRPIPIRPPPRVPRPVPFRP; Synthetic antimicrobial peptide) [compound 312]
Growth inhibition (%) (E. coli TOP10): 93%

313 (RRRPPRVPRPIPIRPPPRVPRPVPVRP; Synthetic antimicrobial peptide) [compound 313]
Growth inhibition (%) (E. coli TOP10): 92%

314 (RRRPPRVPRPLPFRPPPRFPRPIPFRP; Synthetic antimicrobial peptide) [compound 314]
Growth inhibition (%) (E. coli TOP10): 94%

315 (RRRPPRVPRPVPVRPPPRIPRPFPVRP; Synthetic antimicrobial peptide) [compound 315]
Growth inhibition (%) (E. coli TOP10): 98%

316 (RRRTRHVFARPFPFRPPPRIPRPFPLRP; Synthetic antimicrobial peptide) [compound 316]
Growth inhibition (%) (E. coli TOP10): 97%

317 (RRRTRHVFARPVPVRPPPRVPRPFPVRP; Synthetic antimicrobial peptide) [compound 317]
Growth inhibition (%) (E. coli TOP10): 95%

318 (RRRTRHVVPRPLPVRPPPRVPRPFPLRP; Synthetic antimicrobial peptide) [compound 318]
Growth inhibition (%) (E. coli TOP10): 93%

319 (RRRPPRVPRPFPVRPPPRVPRPIPFVHNCSRTKTHLRRGSE; Synthetic antimicrobial peptide) [compound 319]
Growth inhibition (%) (E. coli TOP10): 93%

RRRPFRPPFRPPFRPPVRPPVRPPFRP [SEQ ID NO: 79]
Hemolysis (%) ([1]; 47 micrograms/ml): 16%
Hemolysis (%) ([1]; 94 micrograms/ml): 16%
Hemolysis (%) ([1]; 188 micrograms/ml): 17%
Hemolysis (%) ([1]; 375 micrograms/ml): 17%

RRRPPRLPRPFPVRPPPRFPRPFPLRP [SEQ ID NO: 239]
Hemolysis (%) ([1]; 47 micrograms/ml): 19%
Hemolysis (%) ([1]; 94 micrograms/ml): 16%
Hemolysis (%) ([1]; 188 micrograms/ml): 16%
Hemolysis (%) ([1]; 375 micrograms/ml): 18%

RRRPRPVPRPFPRPVPRPLPRPFPRPF [SEQ ID NO: 61]
Hemolysis (%) ([1]; 47 micrograms/ml): 16%
Hemolysis (%) ([1]; 94 micrograms/ml): 16%
Hemolysis (%) ([1]; 188 micrograms/ml): 16%
Hemolysis (%) ([1]; 375 micrograms/ml): 17%
